Experimental findings from patent publication EP4741383A1, “COMPOUND AND USE THEREOF AS ANTI-CANCER DRUG” (Tyligand Bioscience (Shanghai) Limited, priority 2023, dated 2025) are described below.

What is called IC50 is the concentration that inhibits the measured activity by half. A higher IC50 goes with weaker potency.

Where only a bound is given, the exact number is not on record here.

One experiment addresses T1, LYP (Homo sapiens, UniProt Q9Y2R2).
T1 construct: made in house; host or cells: E. coli
T1 sequence (Q9Y2R2 1-807): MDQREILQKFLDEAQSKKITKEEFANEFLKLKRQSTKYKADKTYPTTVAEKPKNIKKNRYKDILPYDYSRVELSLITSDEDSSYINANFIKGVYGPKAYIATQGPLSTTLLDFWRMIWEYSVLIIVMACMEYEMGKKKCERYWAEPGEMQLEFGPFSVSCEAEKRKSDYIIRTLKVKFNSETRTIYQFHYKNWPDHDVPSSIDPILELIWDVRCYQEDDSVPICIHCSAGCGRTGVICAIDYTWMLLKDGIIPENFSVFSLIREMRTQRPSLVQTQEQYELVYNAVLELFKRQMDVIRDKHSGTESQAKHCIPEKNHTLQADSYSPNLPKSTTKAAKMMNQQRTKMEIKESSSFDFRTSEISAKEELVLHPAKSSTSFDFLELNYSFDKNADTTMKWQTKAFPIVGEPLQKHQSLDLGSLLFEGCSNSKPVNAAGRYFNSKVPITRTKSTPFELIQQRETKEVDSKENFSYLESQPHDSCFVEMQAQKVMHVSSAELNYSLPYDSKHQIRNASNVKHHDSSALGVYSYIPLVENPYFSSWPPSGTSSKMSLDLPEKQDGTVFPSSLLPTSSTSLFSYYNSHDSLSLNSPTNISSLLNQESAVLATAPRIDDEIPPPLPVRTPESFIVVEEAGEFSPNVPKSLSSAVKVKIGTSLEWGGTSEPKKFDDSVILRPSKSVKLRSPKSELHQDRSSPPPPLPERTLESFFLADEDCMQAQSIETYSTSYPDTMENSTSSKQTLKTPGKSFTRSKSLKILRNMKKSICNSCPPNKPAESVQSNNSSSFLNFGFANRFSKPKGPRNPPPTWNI
Put plainly: Tyrosine phosphatase selectivity (pNPP substrate), LYP. In kind it is biochemical. Particulars: LYP, pNPP substrate. As to the method:
(§1) This experiment evaluated the selectivity of the disclosed compounds against tyrosine phosphatases, including SHP1, HePTP, Laforin, LMWPTP, LYP, PTP1B, PRL2, SSU72, VHR, FAP1, STEP, CDC14A, CD45, MEG2, and PP5, all expressed and purified from E. coli.
(§2) Phosphatase activity was measured using p-nitrophenyl phosphate (pNPP) (Fisher Scientific) as the substrate in 50 mM 3,3-dimethylglutaric acid buffer (pH 7.0, containing 1 mM EDTA), with ionic strength adjusted to 0.15 M with NaCl. […] After 10-60 minutes, the reaction was quenched by adding 20 µL of 5 N NaOH. Wells without enzyme were used as controls for correction. The amount of the product, p-nitrophenol, was determined by measuring the absorbance at 405 nm using a Spectra MAX340 microplate spectrophotometer (Molecular Devices), with a molar extinction coefficient of 18000 M^-1cm^-1.
(§3) Data were analyzed using GraphPad Prism software. Dose-response curves were obtained by fitting data using the nonlinear S-curve regression Dose-response-inhibition equation, and IC50 values were calculated.
`O=C(Nc1ccc(-c2ccsc2)cc1)C(=O)Nc1ccc(-c2oc3cc(F)c(-c4nnn[nH]4)cc3c2C2CCC2)cc1` [Example 130] gave an IC50 of 1.2 µM.

`O=C(Nc1ccc(-c2ccsc2)cc1)C(=O)Nc1ccc(-c2cc3cc(F)c(-c4nnn[nH]4)cc3n2C2CCC2)cc1` [Example 4] yielded an IC50 of 0.5 µM.

The experiment is the same for the next values; noted with them: selectivity ratio LYP over SHP2.
In the case of `O=C(Nc1ccc(-c2ccsc2)cc1)C(=O)Nc1ccc(-c2oc3cc(F)c(-c4nnn[nH]4)cc3c2C2CCC2)cc1` [Example 130], the “IC50PTP/IC50SHP2 LYP” value worked out at 48.

Turning to `O=C(Nc1ccc(-c2ccsc2)cc1)C(=O)Nc1ccc(-c2cc3cc(F)c(-c4nnn[nH]4)cc3n2C2CCC2)cc1` [Example 4], the “IC50PTP/IC50SHP2 LYP” value came out at 17.2.

Another experiment concerns the target T2, STEP (Homo sapiens, UniProt P54829).
T2 construct: made in house; host or cells: E. coli
T2 sequence (P54829 1-565): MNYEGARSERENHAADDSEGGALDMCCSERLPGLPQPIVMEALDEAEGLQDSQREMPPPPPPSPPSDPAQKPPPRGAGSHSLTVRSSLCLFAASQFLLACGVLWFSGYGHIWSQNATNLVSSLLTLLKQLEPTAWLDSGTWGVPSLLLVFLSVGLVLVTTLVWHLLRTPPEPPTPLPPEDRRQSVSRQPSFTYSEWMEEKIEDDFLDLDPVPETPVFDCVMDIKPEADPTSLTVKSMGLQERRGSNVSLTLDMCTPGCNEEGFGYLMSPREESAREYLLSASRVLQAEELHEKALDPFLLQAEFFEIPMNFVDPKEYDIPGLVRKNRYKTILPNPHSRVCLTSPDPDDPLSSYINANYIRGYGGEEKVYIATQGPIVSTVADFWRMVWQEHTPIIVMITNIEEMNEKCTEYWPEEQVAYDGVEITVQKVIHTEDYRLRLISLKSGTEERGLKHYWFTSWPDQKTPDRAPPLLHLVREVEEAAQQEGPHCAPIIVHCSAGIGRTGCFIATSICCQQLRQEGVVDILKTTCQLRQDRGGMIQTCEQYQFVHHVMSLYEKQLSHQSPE
In words: Tyrosine phosphatase selectivity (pNPP substrate), STEP. In kind it is biochemical. The conditions noted are these: STEP, pNPP substrate. On the procedure: as §1, §2, §3
In turn, `O=C(Nc1ccc(-c2ccsc2)cc1)C(=O)Nc1ccc(-c2oc3cc(F)c(-c4nnn[nH]4)cc3c2C2CCC2)cc1` [Example 130] came in with an IC50 of less than 3 µM.

Take `O=C(Nc1ccc(-c2ccsc2)cc1)C(=O)Nc1ccc(-c2cc3cc(F)c(-c4nnn[nH]4)cc3n2C2CCC2)cc1` [Example 4]: half-maximal inhibition (IC50) was put at 4.5 µM.

The same experiment, now with this note: selectivity ratio STEP over SHP2.
Regarding `O=C(Nc1ccc(-c2ccsc2)cc1)C(=O)Nc1ccc(-c2oc3cc(F)c(-c4nnn[nH]4)cc3c2C2CCC2)cc1` [Example 130], the “IC50PTP/IC50SHP2 STEP” value is given as 120.

`O=C(Nc1ccc(-c2ccsc2)cc1)C(=O)Nc1ccc(-c2cc3cc(F)c(-c4nnn[nH]4)cc3n2C2CCC2)cc1` [Example 4]: the “IC50PTP/IC50SHP2 STEP” value was 155.2.

The target of a further experiment is T3, PTP1B (Homo sapiens, UniProt P18031).
T3 construct: made in house; host or cells: E. coli
T3 sequence (P18031 1-435): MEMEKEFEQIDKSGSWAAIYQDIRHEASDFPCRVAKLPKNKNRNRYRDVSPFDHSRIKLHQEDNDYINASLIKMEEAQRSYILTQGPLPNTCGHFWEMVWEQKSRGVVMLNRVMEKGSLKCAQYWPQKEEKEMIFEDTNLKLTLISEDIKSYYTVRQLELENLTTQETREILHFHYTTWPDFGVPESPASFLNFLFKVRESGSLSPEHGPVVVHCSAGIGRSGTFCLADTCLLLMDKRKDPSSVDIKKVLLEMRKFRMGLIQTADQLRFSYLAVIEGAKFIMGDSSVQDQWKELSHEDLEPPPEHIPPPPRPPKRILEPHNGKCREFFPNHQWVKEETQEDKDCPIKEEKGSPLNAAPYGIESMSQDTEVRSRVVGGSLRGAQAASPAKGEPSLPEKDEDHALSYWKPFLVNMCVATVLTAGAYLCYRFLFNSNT
Put plainly: Tyrosine phosphatase selectivity (pNPP substrate), PTP1B. The experiment is classed as biochemical. The conditions noted are these: PTP1B, pNPP substrate. On the procedure: as §1, §2, §3
As to `O=C(Nc1ccc(-c2ccsc2)cc1)C(=O)Nc1ccc(-c2oc3cc(F)c(-c4nnn[nH]4)cc3c2C2CCC2)cc1` [Example 130], the IC50 was 11.6 µM.

The compound `O=C(Nc1ccc(-c2ccsc2)cc1)C(=O)Nc1ccc(-c2cc3cc(F)c(-c4nnn[nH]4)cc3n2C2CCC2)cc1` [Example 4] registered an IC50 of 3.2 µM.

The experiment is the same for the next values; noted with them: selectivity ratio PTP1B over SHP2.
For `O=C(Nc1ccc(-c2ccsc2)cc1)C(=O)Nc1ccc(-c2oc3cc(F)c(-c4nnn[nH]4)cc3c2C2CCC2)cc1` [Example 130], the “IC50PTP/IC50SHP2 PTP1B” value was 464.

For `O=C(Nc1ccc(-c2ccsc2)cc1)C(=O)Nc1ccc(-c2cc3cc(F)c(-c4nnn[nH]4)cc3n2C2CCC2)cc1` [Example 4], the “IC50PTP/IC50SHP2 PTP1B” value was 110.3.

A further experiment concerns the target T4, Laforin (Homo sapiens, UniProt O95278).
T4 construct: made in house; host or cells: E. coli
T4 sequence (O95278 1-331): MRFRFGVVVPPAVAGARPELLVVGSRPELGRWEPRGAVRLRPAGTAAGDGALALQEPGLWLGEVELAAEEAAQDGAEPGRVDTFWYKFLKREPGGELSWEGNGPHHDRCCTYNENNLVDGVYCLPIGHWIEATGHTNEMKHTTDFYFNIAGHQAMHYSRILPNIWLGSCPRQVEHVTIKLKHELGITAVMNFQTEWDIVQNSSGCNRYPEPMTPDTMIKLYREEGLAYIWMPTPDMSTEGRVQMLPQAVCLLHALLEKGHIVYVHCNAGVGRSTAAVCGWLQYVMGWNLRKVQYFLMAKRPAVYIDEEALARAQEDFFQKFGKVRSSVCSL
In words: Tyrosine phosphatase selectivity (pNPP substrate), Laforin. The experiment is classed as biochemical. The conditions noted are these: Laforin, pNPP substrate. As to the method: as §1, §2, §3
Take `O=C(Nc1ccc(-c2ccsc2)cc1)C(=O)Nc1ccc(-c2oc3cc(F)c(-c4nnn[nH]4)cc3c2C2CCC2)cc1` [Example 130]: the IC50 is greater than 20 µM.

For `O=C(Nc1ccc(-c2ccsc2)cc1)C(=O)Nc1ccc(-c2cc3cc(F)c(-c4nnn[nH]4)cc3n2C2CCC2)cc1` [Example 4], the IC50 is greater than 20 µM.

The same experiment, now with this note: selectivity ratio Laforin over SHP2.
As for `O=C(Nc1ccc(-c2ccsc2)cc1)C(=O)Nc1ccc(-c2oc3cc(F)c(-c4nnn[nH]4)cc3c2C2CCC2)cc1` [Example 130], the “IC50PTP/IC50SHP2 Laforin” value came out at 800.

`O=C(Nc1ccc(-c2ccsc2)cc1)C(=O)Nc1ccc(-c2cc3cc(F)c(-c4nnn[nH]4)cc3n2C2CCC2)cc1` [Example 4]: the “IC50PTP/IC50SHP2 Laforin” value came to 689.7.

For a further experiment, the target named is T5, SSU72 (Homo sapiens, UniProt Q9NP77).
T5 construct: made in house; host or cells: E. coli
T5 sequence (Q9NP77 1-194): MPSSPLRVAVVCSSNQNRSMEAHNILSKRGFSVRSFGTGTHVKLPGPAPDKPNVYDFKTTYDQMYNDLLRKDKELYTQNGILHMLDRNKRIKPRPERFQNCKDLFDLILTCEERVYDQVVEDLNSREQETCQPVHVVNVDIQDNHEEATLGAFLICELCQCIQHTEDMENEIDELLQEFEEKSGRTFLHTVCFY
In words: Tyrosine phosphatase selectivity (pNPP substrate), SSU72. Particulars: SSU72, pNPP substrate. The experiment is classed as biochemical. As to the method: as §1, §2, §3
`O=C(Nc1ccc(-c2ccsc2)cc1)C(=O)Nc1ccc(-c2oc3cc(F)c(-c4nnn[nH]4)cc3c2C2CCC2)cc1` [Example 130] registered an IC50 of less than 3 µM.

Regarding `O=C(Nc1ccc(-c2ccsc2)cc1)C(=O)Nc1ccc(-c2cc3cc(F)c(-c4nnn[nH]4)cc3n2C2CCC2)cc1` [Example 4], the half-maximal inhibitory concentration (IC50) is less than 3 µM.

The experiment is the same for the next values; noted with them: selectivity ratio SSU72 over SHP2.
In the case of `O=C(Nc1ccc(-c2ccsc2)cc1)C(=O)Nc1ccc(-c2oc3cc(F)c(-c4nnn[nH]4)cc3c2C2CCC2)cc1` [Example 130], the “IC50PTP/IC50SHP2 SSU72” value stood at 120.

Regarding `O=C(Nc1ccc(-c2ccsc2)cc1)C(=O)Nc1ccc(-c2cc3cc(F)c(-c4nnn[nH]4)cc3n2C2CCC2)cc1` [Example 4], the “IC50PTP/IC50SHP2 SSU72” value is 103.4.
